Data as given in patent publication US11014911B2, “CDK2 inhibitors” (Pfizer Inc., priority 2019, dated 2021).

Assays:
[1] = target: CDK2/Cyclin E1 full length (Homo sapiens (Human), UniProt P24941); experiment: CDK2/Cyclin E1 full length mobility shift assay; format: biochemical
GSK3β (H350L) = GSK3β (H350L) (Homo sapiens (Human), UniProt P49841); conditions: read-out: GSK3β Ki
Sequence of GSK3β (H350L) (P49841 whole entry, stated change not applied): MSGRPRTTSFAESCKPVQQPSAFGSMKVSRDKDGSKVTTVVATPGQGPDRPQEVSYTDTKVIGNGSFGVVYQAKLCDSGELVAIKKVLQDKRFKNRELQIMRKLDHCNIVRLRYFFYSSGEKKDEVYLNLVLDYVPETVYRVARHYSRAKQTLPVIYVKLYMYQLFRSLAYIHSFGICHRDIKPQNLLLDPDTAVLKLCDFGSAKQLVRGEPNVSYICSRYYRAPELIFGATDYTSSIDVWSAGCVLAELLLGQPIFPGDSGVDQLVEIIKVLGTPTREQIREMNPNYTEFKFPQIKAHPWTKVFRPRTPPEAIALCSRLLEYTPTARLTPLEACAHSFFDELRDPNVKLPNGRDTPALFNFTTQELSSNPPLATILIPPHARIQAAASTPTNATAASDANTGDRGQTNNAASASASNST
Experimental: The assay was initiated with the addition of ATP, following 15 minutes pre-incubation of enzyme and inhibitor at room temperature in the reaction mixture. The reaction was stopped after 30 minutes at room temperature by the addition of 50 μL of 80 mM EDTA.

| Structure (SMILES) | Ki [1] | Ki (GSK3β (H350L)) |
| --- | --- | --- |
| CC[C@H](C)NC(=O)O[C@@H]1CC[C@H](c2cc(NC(=O)Cc3cncs3)n[nH]2)C1 [Example 36] | 0.17 nM | 21.3 nM |
| COc1ccc(CC(=O)Nc2cc([C@H]3CC[C@@H](OC(=O)NCC(F)F)C3)[nH]n2)cc1 [Example 250, (1R,3S)-3-(3-{[(4-methoxyphenyl)acetyl]amino}-1H-pyrazol-5-yl)cyclopentyl (2,2-difluoroethyl)carbamate] | 1.62 nM | 27.4 nM |
| Cc1ncc(CC(=O)Nc2cc([C@@H]3CC[C@H](OC(=O)N[C@H]4CC[C@@](C)(O)CC4)C3)[nH]n2)s1 [Example 562, (1S,3R)-3-(3-{[(2-methyl-1,3-thiazol-5-yl)acetyl]amino}-1H-pyrazol-5-yl)cyclopentyl (cis-4-hydroxy-4-methylcyclohexyl)carbamate] | 0.43 nM | 4.85 nM |
| CC(C)NC(=O)O[C@@H]1CC[C@H](c2cc(NC(=O)c3cnnn3C)n[nH]2)C1 [Example 262, (1R,3S)-3-(3-{[(1-methyl-1H-1,2,3-triazol-5-yl)carbonyl]amino}-1H-pyrazol-5-yl)cyclopentyl propan-2-ylcarbamate] | 0.64 nM | > 47.6 nM |
| Cc1ncc(CC(=O)Nc2cc([C@@H]3CC[C@H](OC(=O)N[C@H]4CC[C@@H](O)CC4)C3)[nH]n2)s1 [Example 550, (1S,3R)-3-(3-{[(2-methyl-1,3-thiazol-5-yl)acetyl]amino}-1H-pyrazol-5-yl)cyclopentyl (cis-4-hydroxycyclohexyl)carbamate] | 0.36 nM | 3.12 nM |
| CC[C@H](C)CNC(=O)O[C@@H]1CC[C@H](c2cc(NC(=O)Cc3ccno3)n[nH]2)C1 [Example 415, (1R,3S)-3-{3-[(1,2-oxazol-5-ylacetyl)amino]-1H-pyrazol-5-yl}cyclopentyl[(2S)-2-methylbutyl]carbamate] | 1.48 nM | 26.4 nM |
| CC[C@H](C)NC(=O)O[C@H]1CC[C@@H](c2cc(NC(=O)Cc3ccno3)n[nH]2)C1 [Example 30] | 0.16 nM | 20.6 nM |
| CC[C@H](C)NC(=O)O[C@@H]1CC[C@H](c2cc(NC(=O)c3cc(OC)nn3C)n[nH]2)C1 [Example 41] | 0.2 nM | 343 nM |
| COc1ccc(CC(=O)Nc2cc([C@@H]3CC[C@H](OC(=O)N[C@H]4CC[C@@H](O)CC4)C3)[nH]n2)nc1 [Example 554, (1S,3R)-3-(3-{[(5-methoxypyridin-2-yl)acetyl]amino}-1H-pyrazol-5-yl)cyclopentyl (cis-4-hydroxycyclohexyl)carbamate] | 1.76 nM | 5.11 nM |
| CCCNC(=O)O[C@H]1CC[C@@H](c2cc(NC(=O)Cc3ccno3)n[nH]2)C1 [Example 168, (1S,3R)-3-{3-[(1,2-oxazol-5-ylacetyl)amino]-1H-pyrazol-5-yl}cyclopentyl propylcarbamate] | 0.36 nM | 25.8 nM |
| COc1cc(CC(=O)Nc2cc([C@H]3CC[C@@H](OC(=O)N4C[C@@H](O)[C@@H]4C)C3)[nH]n2)ccn1 [Example 612, (1R,3S)-3-(3-{[(2-methoxypyridin-4-yl)acetyl]amino}-1H-pyrazol-5-yl)cyclopentyl (2S,3R)-3-hydroxy-2-methylazetidine-1-carboxylate] | 0.45 nM | 8.01 nM |
| Cc1ccc(CC(=O)Nc2cc([C@H]3CC[C@@H](OC(=O)NC4(C)CC4)C3)[nH]n2)nc1 [Example 424, (1R,3S)-3-(3-{[(5-methylpyridin-2-yl)acetyl]amino}-1H-pyrazol-5-yl)cyclopentyl (1-methylcyclopropyl)carbamate] | 0.51 nM | 14.4 nM |
| CCNC(=O)O[C@@H]1CC[C@H](c2cc(NC(=O)Cc3cc(F)cc(F)c3)n[nH]2)C1 [Example 233, (1R,3S)-3-(3-{[(3,5-difluorophenyl)acetyl]amino}-1H-pyrazol-5-yl)cyclopentyl ethylcarbamate] | 0.85 nM | 43.4 nM |
| CC[C@H](C)NC(=O)O[C@@H]1CC[C@H](c2cc(NC(=O)Cc3ccc(COC)cc3S(C)(=O)=O)[nH]n2)C1 [Example 376, (1R,3S)-3-[5-({[4-(methoxymethyl)-2-(methylsulfonyl)phenyl]acetyl}amino)-1H-pyrazol-3-yl]cyclopentyl (2S)-butan-2-ylcarbamate] | 0.4 nM | 99.3 nM |
| Cc1ncc(CC(=O)Nc2cc([C@@H]3CC[C@H](OC(=O)N[C@H]4CC[C@](C)(O)CC4)C3)[nH]n2)s1 [Example 563, (1S,3R)-3-(3-{[(2-methyl-1,3-thiazol-5-yl)acetyl]amino}-1H-pyrazol-5-yl)cyclopentyl (trans-4-hydroxy-4-methylcyclohexyl)carbamate] | 1.8 nM | 4.35 nM |
| C[C@H]1CCCN1C(=O)O[C@@H]1CC[C@H](c2cc(NC(=O)Cc3ccon3)n[nH]2)C1 [Example 628, (1R,3S)-3-{3-[(1,2-oxazol-3-ylacetyl)amino]-1H-pyrazol-5-yl}cyclopentyl (2S)-2-methylpyrrolidine-1-carboxylate] | 0.92 nM | 20.8 nM |
| COc1ccc(CC(=O)Nc2cc([C@@H]3CC[C@H](OC(=O)N[C@H]4CC[C@](C)(O)CC4)C3)[nH]n2)cn1 [Example 571, (1S,3R)-3-(3-{[(6-methoxypyridin-3-yl)acetyl]amino}-1H-pyrazol-5-yl)cyclopentyl (trans-4-hydroxy-4-methylcyclohexyl)carbamate] | 1.08 nM | 2.28 nM |
| Cc1ncc(CC(=O)Nc2cc([C@H]3CC[C@@H](OC(=O)NC4(C)CCCC4)C3)[nH]n2)s1 [Example 116] | 0.13 nM | 8.86 nM |

| Structure (SMILES) | Ki [1] | Ki (GSK3β (H350L)) |
| --- | --- | --- |
| CC1(C)CCN1C(=O)O[C@@H]1CC[C@H](c2cc(NC(=O)Cc3ccccc3S(C)(=O)=O)n[nH]2)C1 [Example 142] | 0.22 nM | 17.7 nM |
| COc1cc(CC(=O)Nc2cc([C@H]3CC[C@@H](OC(=O)N4[C@@H](C)C[C@@H]4C)C3)[nH]n2)ccn1 [Example 149] | 0.06 nM | 5.58 nM |
| Cc1cc(CC(=O)Nc2cc([C@H]3CC[C@@H](OC(=O)N4CCC[C@@H]4C)C3)[nH]n2)on1 [Example 632, (1R,3S)-3-(3-{[(3-methyl-1,2-oxazol-5-yl)acetyl]amino}-1H-pyrazol-5-yl)cyclopentyl (2S)-2-methylpyrrolidine-1-carboxylate] | 0.36 nM | 12.7 nM |
| COc1cc(CC(=O)Nc2cc([C@H]3CC[C@@H](OC(=O)N4CCC4(C)C)C3)[nH]n2)ccn1 [Example 146] | 0.07 nM | 3.47 nM |
| CC[C@H](C)NC(=O)O[C@@H]1CC[C@H](c2cc(NC(=O)Cc3ccnc(OC)c3)n[nH]2)C1 [Example 37] | 0.19 nM | 23.4 nM |
| CC(C)(C)NC(=O)O[C@@H]1CC[C@H](c2cc(NC(=O)Cc3cc(C(F)F)ccn3)n[nH]2)C1 [Example 314, (1R,3S)-3-[3-({[4-(difluoromethyl)pyridin-2-yl]acetyl}amino)-1H-pyrazol-5-yl]cyclopentyl tert-butylcarbamate] | 0.41 nM | 40.6 nM |
| CCCNC(=O)O[C@H]1CC[C@@H](c2cc(NC(=O)Cc3ccc(OC)cn3)n[nH]2)C1 [Example 186, (1S,3R)-3-(3-{[(5-methoxypyridin-2-yl)acetyl]amino}-1H-pyrazol-5-yl)cyclopentyl propylcarbamate] | 1.03 nM | 9.64 nM |
| CCCNC(=O)O[C@H]1CC[C@@H](c2cc(NC(=O)Cc3cnco3)n[nH]2)C1 [Example 166, (1S,3R)-3-{3-[(1,3-oxazol-5-ylacetyl)amino]-1H-pyrazol-5-yl}cyclopentyl propylcarbamate] | 0.4 nM | 24.3 nM |
| CCCNC(=O)O[C@H]1CC[C@@H](c2cc(NC(=O)c3ccnn3C)n[nH]2)C1 [Example 163, (1S,3R)-3-(3-{[(1-methyl-1H-pyrazol-5-yl)carbonyl]amino}-1H-pyrazol-5-yl)cyclopentyl propylcarbamate] | 0.32 nM | 16.6 nM |
| CCCCNC(=O)O[C@H]1CC[C@@H](c2cc(NC(=O)Cc3ccno3)n[nH]2)C1 [Example 258, (1S,3R)-3-{3-[(1,2-oxazol-5-ylacetyl)amino]-1H-pyrazol-5-yl}cyclopentyl butylcarbamate] | 0.74 nM | 10.7 nM |
| Cc1cc(CC(=O)Nc2cc([C@@H]3CC[C@H](OC(=O)N[C@H]4CC[C@H](O)CC4)C3)[nH]n2)ccn1 [Example 547, (1S,3R)-3-(3-{[(2-methylpyridin-4-yl)acetyl]amino}-1H-pyrazol-5-yl)cyclopentyl (trans-4-hydroxycyclohexyl)carbamate] | 0.61 nM | 3.62 nM |
| CCCNC(=O)O[C@H]1CC[C@@H](c2cc(NC(=O)Cc3ccccc3OCCN)n[nH]2)C1 [Example 197, (1S,3R)-3-[3-({[2-(2-aminoethoxy)phenyl]acetyl}amino)-1H-pyrazol-5-yl]cyclopentyl propylcarbamate] | 0.49 nM | > 191 nM |
| CC[C@H](C)NC(=O)O[C@@H]1CC[C@H](c2cc(NC(=O)c3ccnn3CCN(C)C)[nH]n2)C1 [Example 356, (1R,3S)-3-{5-[({1-[2-(dimethylamino)ethyl]-1H-pyrazol-5-yl}carbonyl)amino]-1H-pyrazol-3-yl}cyclopentyl (2S)-butan-2-ylcarbamate] | 0.67 nM | 148 nM |
| C[C@H]1CCN1C(=O)O[C@@H]1CC[C@H](c2cc(NC(=O)c3cnnn3C)n[nH]2)C1 [Example 586, (1R,3S)-3-(3-{[(1-methyl-1H-1,2,3-triazol-5-yl)carbonyl]amino}-1H-pyrazol-5-yl)cyclopentyl (2S)-2-methylazetidine-1-carboxylate] | 0.88 nM | 51.5 nM |
| CC[C@H](C)NC(=O)O[C@@H]1CC[C@H](c2cc(NC(=O)Cc3ccc(C(=O)N(C)C)cc3)n[nH]2)C1 [Example 364, (1R,3S)-3-[3-({[4-(dimethylcarbamoyl)-phenyl]acetyl}amino)-1H-pyrazol-5-yl]cyclopentyl (2S)-butan-2-ylcarbamate] | 0.82 nM | 59.9 nM |
| CC[C@H](C)NC(=O)O[C@H]1CC[C@@H](c2cc(NC(=O)c3cnnn3C)n[nH]2)C1 [Example 31] | 0.16 nM | 45.1 nM |
| CCCNC(=O)O[C@H]1CC[C@@H](c2cc(NC(=O)Cc3cncs3)n[nH]2)C1 [Example 20] | 0.21 nM | 27.9 nM |
